Assay results taken from US11292788B2, “IL-17 and IFN-gamma inhibition for the treatment of autoimmune diseases and chronic inflammation” (Immunic AG, priority 2017, dated 2022).
pIC50: −log10 of the molar value. ≈ marks a conversion by molar mass, not a printed value. Where two headings read alike, the source gives them in different places.

How the values were obtained:
IL-17A = assay: Cytokine assay: IL-17A production by human PBMC stimulated with PHA; type: cell-based; conditions: IC50 class, read-out: IL-17A Inhib.
Summary of the method: (§1)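 Compounds were titrated semilogarithmically for IC50, or screened at 10, 1, 0.1 and 0.01 μM, on healthy-donor PBMC stimulated for 48 h with 2 μg/ml PHA at 1×10^5 cells/well. Cytokines in culture supernatants were then quantified by ELISA or Luminex bead assay.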

IL-17F = assay: Cytokine assay: IL-17F production by human PBMC stimulated with PHA; type: cell-based; conditions: IC50 class, read-out: IL-17F Inhib.
Summary of the method: as §1

INF-γ = assay: Cytokine assay: INF-γ production by human PBMC stimulated with PHA; type: cell-based; conditions: IC50 class, read-out: IFN-gamma Inhib.
Summary of the method: as §1

[1] = Aqueous solubility in 50 mM phosphate buffer (HPLC/DAD); type: physicochemical; conditions: aqueous solubility class; for solubility at 24 h: 50 mM phosphate buffer, 23 °C, pH 7.4, aqueous buffer, kinetic from dmso stock, read-out: aq. solub.
Experimental: To achieve this, the samples (final volume 500 μl, 200 μM compound concentration) were incubated for 24 hours at 23° C. under continuous shaking at 1400 rpm (Thermomixer, Eppendorf) in aqueous phosphate buffers (pH 4.0, 6.0, 7.4 and 9.0) with a final DMSO concentration of 1%. To separate the undissolved compound from the solution, the samples were centrifuged (30 min 18000 g at 23° C.). Supernatants were measured via HPLC equipped with a UV detector and concentrations were calculated according to signals of a standard curve. The standard curve was prepared by diluting a stock solution of each compound (c=0.1 mg/ml; received by adding 10 μl of 20 mM compound in DMSO to 914 μl MeCN) in a certain amount of MeCN to cover a range of 0.1 to 200 μg/ml.

[2] = Microsomal stability: incubation with human liver microsomes, residual parent compound by HPLC-MS/MS; type: in vitro ADME; conditions: human liver microsomes 0.5 mg/ml, compound 1 μM, pH 7.4, 37° C., up to 60 min; for half-life at 1 μM: read-out: t1/2 hLM
Summary of the method: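 Compound at 1 μM final with 0.5 mg/ml pooled human liver microsomes and NADPH regenerating system, 0.1 M potassium phosphate pH 7.4, 0.4% DMSO, 37° C, sampled up to 60 min. Residual parent measured by HPLC-MS/MS; half-life and clearance from slope of remaining % of T0.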

| Structure (SMILES) | pIC50 (IL-17A; Homo sapiens, PBMC) | pIC50 (IL-17F; Homo sapiens, PBMC) | pIC50 (INF-γ; Homo sapiens, PBMC) | solubility at 24 h [1] [µM] | half-life at 1 μM [2] [min] | pIC50 (IL-17A) | pIC50 (IL-17F) | pIC50 (INF-γ) | aq. solub. [1] | t1/2 hLM [2] |
| --- | --- | --- | --- | --- | --- | --- | --- | --- | --- | --- |
| CCOC(=O)c1c(-c2c(F)cccc2Cl)noc1-c1cnn(CCC(C)(C)O)c1C(F)(F)F [Example 9, ethyl 3-(2-chloro-6-fluorophenyl)-5-[1-(3-hydroxy-3-methylbutyl)-5-(trifluoromethyl)-1H-pyrazol-4-yl]-1,2-oxazole-4-carboxylate] | > 7.30 | > 7.30 | > 7.30 | 3 to 9.99 (≈ 1.47 to 4.89 µg/mL) | 40 to 100 |  |  |  |  |  |
| CCOC(=O)c1c(-c2c(F)cccc2Cl)noc1-c1cnn([C@H]2C[C@@](C)(O)C2)c1C(F)(F)F [Example 10, ethyl 3-(2-chloro-6-fluorophenyl)-5-[1-(3-hydroxy-3-methylcyclobutyl)-5-(trifluoromethyl)-1H-pyrazol-4-yl]-1,2-oxazole-4-carboxylate] | > 7.30 | > 7.30 | > 7.30 | 3 to 9.99 (≈ 1.46 to 4.87 µg/mL) | > 100 |  |  |  |  |  |
| CCOC(=O)c1c(-c2c(F)cccc2Cl)noc1-c1cnn(C[C@@H](C)O)c1C(F)(F)F [Example 12, ethyl 3-(2-chloro-6-fluorophenyl)-5-{1-[(2R)-2-hydroxypropyl]-5-(trifluoromethyl)-1H-pyrazol-4-yl}-1,2-oxazole-4-carboxylate] | > 7.30 | > 7.30 | > 7.30 | > 10 | 10 to 40 |  |  |  |  |  |
| CCOC(=O)c1c(-c2c(F)cccc2Cl)noc1-c1cnn(C[C@H](C)O)c1C(F)(F)F [Example 13, ethyl 3-(2-chloro-6-fluorophenyl)-5-(1-((2S)-2-hydroxypropyl)-5-(trifluoromethyl)-1H-pyrazol-4-yl)-1,2-oxazole-4-carboxylate] | > 7.30 | > 7.30 | > 7.30 | > 10 | 40 to 100 |  |  |  |  |  |
| COC(=O)c1c(-c2c(F)cccc2Cl)noc1-c1cnn(CCC(C)(C)O)c1C [Example 20, methyl 3-(2-chloro-6-fluorophenyl)-5-[1-(3-hydroxy-3-methylbutyl)-5-methyl-1H-pyrazol-4-yl]-1,2-oxazole-4-carboxylate] | > 7.30 | > 7.30 | > 7.30 | > 10 | > 100 |  |  |  |  |  |
| COC(=O)c1c(-c2c(F)cccc2Cl)noc1-c1cnn([C@H]2C[C@](C)(O)C2)c1C(F)(F)F [Example 26, methyl 3-(2-chloro-6-fluorophenyl)-5-(1-(3-hydroxy-3-methylcyclobutyl)-5-(trifluoromethyl)-1H-pyrazol-4-yl)isoxazole-4-carboxylate] |  |  |  |  | 40 to 100 | 5.30 to 6.30 | 5.30 to 6.30 | 5.30 to 6.30 | + (+: 1-2.99 μM) |  |
| COC(=O)c1c(-c2c(F)cccc2Cl)noc1-c1cnn([C@H]2C[C@](C)(O)C2)c1C(F)(F)F [Example 27, methyl 3-(2-chloro-6-fluorophenyl)-5-(1-(3-hydroxy-3-methylcyclobutyl)-5-(trifluoromethyl)-1H-pyrazol-4-yl)isoxazole-4-carboxylate] |  |  |  |  |  | > 7.30 | > 7.30 | > 7.30 | ++ (++: 3-9.99 μM) | ++ (++: 40-100 min) |
| CC(=O)c1c(-c2c(F)cccc2Cl)noc1-c1cnn(C[C@@H](C)O)c1C(F)(F)F [Example 35, 1-[3-(2-chloro-6-fluorophenyl)-5-{1-[(2R)-2-hydroxypropyl]-5-(trifluoromethyl)-1H-pyrazol-4-yl}-1,2-oxazol-4-yl]ethan-1-one] | 6.30 to 7.30 | 6.30 to 7.30 | 6.30 to 7.30 | > 10 | 40 to 100 |  |  |  |  |  |
| C[C@@H](O)Cn1ncc(-c2onc(-c3c(F)cccc3Cl)c2C(=O)NC2CCCC2)c1C(F)(F)F [Example 44, 3-(2-chloro-6-fluorophenyl)-N-cyclopentyl-5-{1-[1-(2R)-2-hydroxypropyl]-5-(trifluoromethyl)-1H-pyrazol-4-yl}-1,2-oxazole-4-carboxamide] | 6.30 to 7.30 | 5.30 to 6.30 | 6.30 to 7.30 | > 10 | 2 to 9.99 |  |  |  |  |  |
| C[C@]1(O)C[C@H](n2ncc(-c3onc(-c4ccccc4Cl)c3C(=O)OC3CC3)c2C(F)(F)F)C1 [Example 49, cyclopropyl 3-(2-chlorophenyl)-5-(1-(3-hydroxy-3-methylcyclobutyl)-5-(trifluoromethyl)-1H-pyrazol-4-yl)isoxazole-4-carboxylate] |  |  |  | 1 to 2.99 (≈ 0.482 to 1.44 µg/mL) | > 100 | > 7.30 | > 7.30 | > 7.30 |  |  |
| CC(C)(O)Cn1ncc(-c2onc(-c3c(F)cccc3Cl)c2C(=O)OC2CCC2)c1C(F)(F)F [Example 56, cyclobutyl 3-(2-chloro-6-fluorophenyl)-5-[1-(2-hydroxy-2-methylpropyl)-5-(trifluoromethyl)-1H-pyrazol-4-yl]-1,2-oxazole-4-carboxylate] | > 7.30 | > 7.30 | > 7.30 | 1 to 2.99 (≈ 0.502 to 1.5 µg/mL) | 2 to 9.99 |  |  |  |  |  |
| C[C@H](O)Cn1ncc(-c2onc(-c3c(F)cccc3Cl)c2C(=O)OC2CC2)c1C(F)(F)F [Example 59, cyclopropyl 3-(2-chloro-6-fluorophenyl)-5-{1-[(2S)-2-hydroxypropyl]-5-(trifluoromethyl)-1H-pyrazol-4-yl}-1,2-oxazole-4-carboxylate] | > 7.30 | > 7.30 | > 7.30 | > 10 | 10 to 40 |  |  |  |  |  |
| C[C@H](O)Cn1ncc(-c2onc(-c3c(F)cccc3Cl)c2C(=O)OC2COC2)c1C(F)(F)F [Example 60, oxetan-3-yl 3-(2-chloro-6-fluorophenyl)-5-{1-[(2S)-2-hydroxypropyl]-5-(trifluoromethyl)-1H-pyrazol-4-yl}-1,2-oxazole-4-carboxylate] | 6.30 to 7.30 | 6.30 to 7.30 | 6.30 to 7.30 | > 10 | 10 to 40 |  |  |  |  |  |
| COCc1c(-c2c(F)cccc2Cl)noc1-c1cnn(CCC(C)(C)O)c1C(F)(F)F [Example 67, 4-{4-[3-(2-chloro-6-fluorophenyl)-4-(methoxymethyl)-1,2-oxazol-5-yl]-5-(trifluoromethyl)-1H-pyrazol-1-yl}-2-methylbutan-2-ol] | 6.30 to 7.30 | 6.30 to 7.30 | > 7.30 | > 10 | > 100 |  |  |  |  |  |
| CCOCc1c(-c2c(F)cccc2Cl)noc1-c1cnn(C[C@@H](C)O)c1C(F)(F)F [Example 76, (2R)-1-{4-[3-(2-chloro-6-fluorophenyl)-4-(ethoxymethyl)-1,2-oxazol-5-yl]-5-(trifluoromethyl)-1H-pyrazol-1-yl}propan-2-ol] | 6.30 to 7.30 | 6.30 to 7.30 | > 7.30 | > 10 | 10 to 40 |  |  |  |  |  |
| CC(C)(O)CCn1ncc(-c2onc(-c3c(F)cccc3Cl)c2COC2CC2)c1C(F)(F)F [Example 77, 4-{4-[3-(2-chloro-6-fluorophenyl)-4-(cyclopropoxymethyl)-1,2-oxazol-5-yl]-5-(trifluoromethyl)-1H-pyrazol-1-yl}-2-methylbutan-2-ol] | > 7.30 | > 7.30 | > 7.30 | 3 to 9.99 (≈ 1.46 to 4.87 µg/mL) | > 100 |  |  |  |  |  |
| CC(C)(O)CCn1ncc(-c2onc(-c3ccccc3Cl)c2COC2CC2)c1C(F)(F)F [Example 78, 4-{4-[3-(2-chlorophenyl)-4-(cyclopropoxymethyl)-1,2-oxazol-5-yl]-5-(trifluoromethyl)-1H-pyrazol-1-yl}-2-methylbutan-2-ol] | 6.30 to 7.30 | > 7.30 | > 7.30 | > 10 | 40 to 100 |  |  |  |  |  |
| Cc1c(-c2onc(-c3c(F)cccc3Cl)c2COC2CC2)cnn1CCC(C)(C)O [Example 82, 4-{4-[3-(2-chloro-6-fluorophenyl)-4-(cyclopropoxymethyl)-1,2-oxazol-5-yl]-5-methyl-1H-pyrazol-1-yl}-2-methylbutan-2-ol] | > 7.30 | > 7.30 | > 7.30 | > 10 | > 100 |  |  |  |  |  |
| Cc1c(-c2onc(-c3c(F)cccc3Cl)c2COC2CC2)cnn1[C@H]1C[C@@](C)(O)C1 [Example 83, 3-{4-[3-(2-chloro-6-fluorophenyl)-4-(cyclopropoxymethyl)-1,2-oxazol-5-yl]-5-methyl-1H-pyrazol-1-yl}-1-methylcyclobutan-1-ol] | > 7.30 | > 7.30 | > 7.30 | 1 to 2.99 (≈ 0.432 to 1.29 µg/mL) | 40 to 100 |  |  |  |  |  |
